ChEMBL document CHEMBL1201862, “PubChem BioAssay data set” (2004)
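Grown in 96-well plates, cells were treated for 48 hours with each compound at five concentrations. Insufficient inhibition: endpoint recorded as highest concentration tested. At the GI50, growth is halved.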 Active and inactive are the calls of the source. Rule as the data show it: active = GI50 up to about 1.1 µM and inactive = higher.

What was measured:
Test in all cases: DTP human tumour cell line panel, 48 h
PC-3 = tested on: PC-3
MCF7 = tested on: MCF7
RPMI-8226 = tested on: RPMI-8226
LOX IMVI = tested on: LOX IMVI
HL-60 = tested on: HL-60
MOLT-4 = tested on: MOLT-4
IGROV-1 = tested on: IGROV-1
ACHN = tested on: ACHN
MDA-N = tested on: MDA-N
OVCAR-5 = tested on: OVCAR-5
SF-268 = tested on: SF-268
HCT-116 = tested on: HCT-116
HOP-62 = tested on: HOP-62
TK-10 = tested on: TK-10
OVCAR-4 = tested on: OVCAR-4
SNB-19 = tested on: SNB-19
SK-MEL-28 = tested on: SK-MEL-28
SF-539 = tested on: SF-539
UO-31 = tested on: UO-31
EKVX = tested on: EKVX
OVCAR-8 = tested on: OVCAR-8
A498 = tested on: A498
HCT-15 = tested on: HCT-15
U-251 = tested on: U-251
A549 = tested on: A549
786-0 = tested on: 786-0
COLO 205 = tested on: COLO 205
K562 = tested on: K562
Malme-3M = tested on: Malme-3M
SK-MEL-2 = tested on: SK-MEL-2
CAKI-1 = tested on: CAKI-1
UACC-62 = tested on: UACC-62
SN12C = tested on: SN12C
NCI-H226 = tested on: NCI-H226
SW-620 = tested on: SW-620
NCI-H460 = tested on: NCI-H460
DU-145 = tested on: DU-145
HCC 2998 = tested on: HCC 2998
SK-OV-3 = tested on: SK-OV-3
MDA-MB-435 = tested on: MDA-MB-435
NCI-H23 = tested on: NCI-H23
SK-MEL-5 = tested on: SK-MEL-5
MDA-MB-231 = tested on: MDA-MB-231
T47D = tested on: T47D
NCI/ADR-RES = tested on: NCI/ADR-RES
Hs-578T = tested on: Hs-578T
SF-295 = tested on: SF-295
KM12 = tested on: KM12
M14 = tested on: M14
SR = tested on: SR
CCRF-CEM = tested on: CCRF-CEM
SNB-75 = tested on: SNB-75
HT-29 = tested on: HT-29
OVCAR-3 = tested on: OVCAR-3
RXF 393 = tested on: RXF 393
HOP-92 = tested on: HOP-92
NCI-H522 = tested on: NCI-H522
UACC-257 = tested on: UACC-257

For C=CCOCn1cnc2c(=O)[nH]c(N)nc21, the GI50 (PC-3) was > 100 µM (inactive), the GI50 (MCF7) was > 100 µM (inactive) and the GI50 (RPMI-8226) was > 100 µM (inactive). For the same compound, the GI50 (LOX IMVI) was > 100 µM (inactive), the GI50 (HL-60) was > 100 µM (inactive) and the GI50 (MOLT-4) was > 100 µM (inactive). The GI50 (IGROV-1) was > 100 µM (inactive), the GI50 (ACHN) was > 100 µM (inactive) and the GI50 (MDA-N) was > 100 µM (inactive). The GI50 (OVCAR-5) was > 100 µM (inactive), the GI50 (SF-268) was > 100 µM (inactive) and the GI50 (HCT-116) was > 100 µM (inactive). The GI50 (HOP-62) was > 100 µM (inactive), the GI50 (TK-10) was > 100 µM (inactive) and the GI50 (OVCAR-4) was > 100 µM (inactive). The GI50 (SNB-19) was > 100 µM (inactive), the GI50 (SK-MEL-28) was > 100 µM (inactive) and the GI50 (SF-539) was > 100 µM (inactive). The GI50 (UO-31) was > 100 µM (inactive), the GI50 (EKVX) was > 100 µM (inactive) and the GI50 (OVCAR-8) was > 100 µM (inactive). The GI50 (A498) was > 100 µM (inactive), the GI50 (HCT-15) was > 100 µM and the GI50 (U-251) was > 100 µM (inactive). For the same compound, the GI50 (A549) was > 100 µM (inactive), the GI50 (786-0) was > 100 µM (inactive) and the GI50 (COLO 205) was > 100 µM (inactive). The GI50 (K562) was > 100 µM (inactive), the GI50 (Malme-3M) was > 100 µM (inactive) and the GI50 (SK-MEL-2) was > 100 µM (inactive). For the same compound, the GI50 (CAKI-1) was > 100 µM (inactive), the GI50 (UACC-62) was > 100 µM (inactive) and the GI50 (SN12C) was > 100 µM (inactive). The GI50 (NCI-H226) was > 100 µM (inactive), the GI50 (SW-620) was > 100 µM (inactive) and the GI50 (NCI-H460) was > 100 µM (inactive). For the same compound, the GI50 (DU-145) was > 100 µM (inactive), the GI50 (HCC 2998) was > 100 µM (inactive) and the GI50 (SK-OV-3) was > 100 µM (inactive). The GI50 (MDA-MB-435) was > 100 µM (inactive), the GI50 (NCI-H23) was > 100 µM (inactive) and the GI50 (SK-MEL-5) was > 100 µM (inactive). The GI50 (MDA-MB-231) was > 100 µM (inactive), the GI50 (T47D) was > 100 µM (inactive) and the GI50 (NCI/ADR-RES) was > 100 µM (inactive). The GI50 (Hs-578T) was > 100 µM (inactive), the GI50 (SF-295) was > 100 µM (inactive) and the GI50 (KM12) was > 100 µM (inactive). The GI50 (M14) was > 100 µM (inactive), the GI50 (SR) was > 100 µM (inactive) and the GI50 (CCRF-CEM) was > 100 µM (inactive). The GI50 (SNB-75) was > 100 µM (inactive).

O=[N+]([O-])/C(C(Cl)=C(Cl)Cl)=C1\Nc2ccccc2O1 was tested, and the GI50 (PC-3) was 70.5 µM (inactive), the GI50 (HT-29) was > 100 µM (inactive) and the GI50 (MCF7) was 40.2 µM (inactive). For the same compound, the GI50 (RPMI-8226) was 24.3 µM (inactive), the GI50 (LOX IMVI) was > 100 µM (inactive) and the GI50 (HL-60) was 28.8 µM (inactive). For the same compound, the GI50 (OVCAR-3) was 23.4 µM (inactive), the GI50 (MOLT-4) was 29.6 µM (inactive) and the GI50 (IGROV-1) was 43.7 µM (inactive). The GI50 (ACHN) was 35.8 µM (inactive), the GI50 (MDA-N) was 45.4 µM (inactive) and the GI50 (OVCAR-5) was > 100 µM (inactive). For the same compound, the GI50 (SF-268) was > 100 µM (inactive), the GI50 (HCT-116) was 51.6 µM (inactive) and the GI50 (HOP-62) was 47.4 µM (inactive). For the same compound, the GI50 (TK-10) was > 100 µM (inactive), the GI50 (OVCAR-4) was 33.8 µM (inactive) and the GI50 (SNB-19) was > 100 µM (inactive). For the same compound, the GI50 (SK-MEL-28) was > 100 µM (inactive), the GI50 (RXF 393) was > 100 µM (inactive) and the GI50 (SF-539) was 19.9 µM (inactive). The GI50 (UO-31) was 14.5 µM (inactive), the GI50 (EKVX) was > 100 µM (inactive) and the GI50 (OVCAR-8) was 25.2 µM (inactive). For the same compound, the GI50 (A498) was > 100 µM (inactive), the GI50 (HCT-15) was > 100 µM and the GI50 (U-251) was > 100 µM (inactive). For the same compound, the GI50 (A549) was 37.7 µM (inactive), the GI50 (786-0) was 17 µM (inactive) and the GI50 (HOP-92) was 12 µM (inactive). The GI50 (NCI-H522) was 27.2 µM (inactive), the GI50 (COLO 205) was 60.1 µM (inactive) and the GI50 (K562) was > 100 µM (inactive). The GI50 (Malme-3M) was 27.9 µM (inactive), the GI50 (SK-MEL-2) was > 100 µM (inactive) and the GI50 (CAKI-1) was > 100 µM (inactive). For the same compound, the GI50 (UACC-62) was 9.16 µM (inactive), the GI50 (SN12C) was 45.9 µM (inactive) and the GI50 (NCI-H226) was 27.5 µM (inactive). The GI50 (SW-620) was > 100 µM (inactive), the GI50 (NCI-H460) was > 100 µM (inactive) and the GI50 (DU-145) was > 100 µM (inactive). The GI50 (HCC 2998) was > 100 µM (inactive), the GI50 (SK-OV-3) was > 100 µM (inactive) and the GI50 (MDA-MB-435) was 36.6 µM (inactive). For the same compound, the GI50 (NCI-H23) was 67.3 µM (inactive), the GI50 (SK-MEL-5) was > 100 µM (inactive) and the GI50 (MDA-MB-231) was 44.3 µM (inactive). For the same compound, the GI50 (T47D) was > 100 µM (inactive), the GI50 (Hs-578T) was 32.3 µM (inactive) and the GI50 (SF-295) was > 100 µM (inactive). For the same compound, the GI50 (UACC-257) was > 100 µM (inactive), the GI50 (KM12) was 90.6 µM (inactive) and the GI50 (M14) was > 100 µM (inactive). The GI50 (SR) was 24.9 µM (inactive), the GI50 (CCRF-CEM) was 19.5 µM (inactive) and the GI50 (SNB-75) was 15.7 µM (inactive).
